According to patent US7491704B2, “Compounds for enzyme inhibition” (Proteolix, Inc., priority 2004, dated 2009):

How the values were obtained:
[1] = molecular target: 20S proteasome chymotrypsin-like activity (CT-L) (Homo sapiens, UniProt P20618+P28074); experiment: 20S proteasome chymotrypsin-like (CT-L) activity inhibition; assay type: biochemical
Description: The enzyme inhibitor analogs and prodrugs disclosed herein are useful in part because they inhibit the action of the 20S proteasome. […] That is, the instant compounds show selectivities for the 20S proteasome over other proteases such as cathepsins, calpains, papain, chymotrypsin, trypsin, tripeptidyl pepsidase II. The selectivities of the enzyme inhibitors for 20S proteasome are such that at concentrations below about 50 μM, the enzyme inhibitors show inhibition of the catalytic activity of the 20S proteasome, while not showing inhibition of the catalytic activity of other proteases such as cathepsins, calpains, papain, chymotrypsin, trypsin, tripeptidyl pepsidase II. In preferred embodiments, the enzyme inhibitors show inhibition of the catalytic activity of the 20S proteasome at concentrations below about 10 μM, while not showing inhibition of the catalytic activity of other proteases at these concentrations. […]
The chymotrypsin-like activity of 20S proteasome is characterized by cleavage of peptides in the immediate vicinity of large hydrophobic residues. In particular, the chymotrypsin-like activity of Ntn hydrolases can be determined by cleavage of a standard substrate. […]

[2] = molecular target: T1, proteasome chymotrypsin-like activity (CT-L), cell-based (Homo sapiens, UniProt P28074); experiment: Cell-based CT-L activity inhibition
T1 construct: endogenous in cells
T1 sequence (P28074 60-263): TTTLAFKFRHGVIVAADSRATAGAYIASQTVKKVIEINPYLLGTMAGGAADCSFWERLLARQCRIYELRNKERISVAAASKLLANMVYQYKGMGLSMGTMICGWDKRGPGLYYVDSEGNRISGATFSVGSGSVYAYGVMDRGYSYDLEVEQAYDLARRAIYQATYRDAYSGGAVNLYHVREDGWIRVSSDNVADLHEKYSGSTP

With `CC(C)CC(NC(=O)C(CCc1ccccc1)NC(=O)CN(C)C)C(=O)NC(Cc1ccccc1)C(=O)NC(CC(C)C)C(=O)C1(C)CO1` (centres unmarked) [compound 3] the IC50 [1] was < 100 nM and the IC50 [2] was < 100 nM.
